Results: article PMC10096344 (Molecules, 2023)

System: S. typhimurium strains TA97, TA98, TA100 and TA102
Assay: Bacterial reverse mutation assay (Ames assay), all strains
Assay type: cell-based, Salmonell typhimurium
Experimental: A sample of 2-aminofluorene (10 μg/plate) was used for TA97, TA98, TA100 +S9 test strains, while 1,8-dihydroxyanthraquinone (60 μg/plate) was used for the TA102 +S9 test strain. The histidine was added with the same amount. The plates were incubated for 48 h at 37 °C; the number of colonies was then counted per plate.

SMILES: N#CC1=C(N)Oc2c(c(=O)oc3ccccc23)C1c1cc(C(F)(F)F)cc(C(F)(F)F)c1 (centres unmarked) [LP4C]
- number of bacterial revertant colonies vs DMSO negative control (LP4C 50 μg/plate to 5000 μg/plate): did not increase
- mutagenic potential (LP4C 50 to 5000 μg/plate, ±S9): no obvious mutagenic potential
